Assays:
Type in all cases: in vitro ADME
[1] = target: T1, UGT1A9 (Homo sapiens, UniProt O60656); experiment: Inhibition of UGT1A9 (mycophenolic acid glucuronidation) in human liver microsomes; conditions: substrate mycophenolic acid; HLMs; average ± standard error
T1 construct: tissue XenoTech XTreme 200; host or cells: pooled human liver microsomes
Procedure: (§1) The ability of selamariscina A to inhibit the metabolism of six UGT enzyme probe substrates was evaluated using previously developed methods with minor modifications. The microsomal incubation was performed by dividing the non-interactive substrate cocktail sets (set A included SN-38 for UGT1A1, CDCA for UGT1A3 and TFP for UGT1A4 while set B included N-SER for UGT1A6, MPA for UGT1A9 and NX for UGT2B7) (Table 2). In brief, HLMs (0.25 mg/mL) were activated by incubation in the presence of alamethicin (25 µg/mL) for 15 min on ice. After the addition of UGT probe substrates and inhibitor (0, 0.5, 2, 5, 20 and 50 μM), the incubation mixtures were pre-incubated at 37 °C for 5 min. […] After centrifugation at 18,000 g (5 min, 4 °C), aliquots of supernatants were analyzed by LC–MS/MS. […]
(§2) All metabolites and the IS were separated on a Kinetex XB-C18 column (100 × 2.10 mm, 2.6 μm, 100 Å; Phenomenex, Torrance, CA, USA) and analyzed using a Shimadzu LCMS 8060 triple-quadrupole mass spectrometer coupled with a Nexera X2 ultra high-performance liquid chromatography system (Shimadzu, Kyoto, Japan) equipped with an electrospray ionization interface. […] Quantitation was conducted in selected reaction monitoring (SRM) modes with the precursor-to-product ion transition for each metabolite (Table 1 and Table 2).
(§3) We analyzed the data with Shimadzu LabSolution LC–MS software. […]

[2] = target: T2, UGT2B7 (Homo sapiens, UniProt P16662); experiment: Inhibition of UGT2B7 (naloxone glucuronidation) in human liver microsomes; conditions: substrate naloxone; HLMs
T2 construct: tissue XenoTech XTreme 200; host or cells: pooled human liver microsomes
Procedure: as §1, §2, §3

[3] = target: T3, CYP2C8 (Homo sapiens, UniProt P10632); experiment: Inhibition of CYP2C8-catalyzed rosiglitazone 5-hydroxylation in human liver microsomes; parameters: incubation mixtures containing pooled human liver microsomes (HLMs, XTreme 200, XenoTech); tissue XenoTech XTreme 200; host or cells: pooled human liver microsomes
T3 sequence (P10632 1-490): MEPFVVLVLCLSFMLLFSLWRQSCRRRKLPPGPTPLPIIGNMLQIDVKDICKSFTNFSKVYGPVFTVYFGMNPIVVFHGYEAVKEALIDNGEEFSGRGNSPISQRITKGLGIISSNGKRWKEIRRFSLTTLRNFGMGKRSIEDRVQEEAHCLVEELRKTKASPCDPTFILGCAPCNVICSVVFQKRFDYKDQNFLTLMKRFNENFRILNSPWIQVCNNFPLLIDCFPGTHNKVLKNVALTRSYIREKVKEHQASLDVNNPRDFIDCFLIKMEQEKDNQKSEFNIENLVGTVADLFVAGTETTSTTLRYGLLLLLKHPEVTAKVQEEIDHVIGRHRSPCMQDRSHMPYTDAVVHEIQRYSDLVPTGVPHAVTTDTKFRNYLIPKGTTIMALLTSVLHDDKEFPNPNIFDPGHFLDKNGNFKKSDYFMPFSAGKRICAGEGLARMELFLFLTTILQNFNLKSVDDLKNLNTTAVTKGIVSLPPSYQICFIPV
Excerpt: We used HLMs to determine the mechanisms and constants (Ki values) for […] A inhibition of CYP1A2, CYP2B6, CYP2C8, CYP2C9 and CYP3A. […] The substrates were used at concentrations approximately near to their respective Km values. […] The other conditions were the same as in the cytochrome P450 inhibition study. […] Phenomenex, Torrance, CA, USA) and analyzed using a Shimadzu LCMS 8060 triple-quadrupole mass spectrometer coupled with a Nexera X2 ultra high-performance liquid chromatography system (Shimadzu, Kyoto, Japan) equipped with an electrospray ionization interface. The mobile phase consisted of 0.1% formic acid in water (A) and 0.1% formic acid in acetonitrile (B). […] The flow rate was 0.2 mL/min. Electrospray ionization was performed in positive-ion mode at 4000 V or in negative-ion mode at -3500 V. The optimum operating conditions were determined as follows: vaporizer temperature, 300 °C; capillary temperature, 350 °C; collision gas (argon) pressure, 1.5 mTorr. Quantitation was conducted in selected reaction monitoring (SRM) modes with the precursor-to-product ion transition for each metabolite (Table 1 and Table 2). We analyzed the data with Shimadzu LabSolution LC-MS software. The IC50 values were calculated by WinNonlin software (Pharsight, Mountain View, CA, USA). […]

T2 sequence (P16662 24-529): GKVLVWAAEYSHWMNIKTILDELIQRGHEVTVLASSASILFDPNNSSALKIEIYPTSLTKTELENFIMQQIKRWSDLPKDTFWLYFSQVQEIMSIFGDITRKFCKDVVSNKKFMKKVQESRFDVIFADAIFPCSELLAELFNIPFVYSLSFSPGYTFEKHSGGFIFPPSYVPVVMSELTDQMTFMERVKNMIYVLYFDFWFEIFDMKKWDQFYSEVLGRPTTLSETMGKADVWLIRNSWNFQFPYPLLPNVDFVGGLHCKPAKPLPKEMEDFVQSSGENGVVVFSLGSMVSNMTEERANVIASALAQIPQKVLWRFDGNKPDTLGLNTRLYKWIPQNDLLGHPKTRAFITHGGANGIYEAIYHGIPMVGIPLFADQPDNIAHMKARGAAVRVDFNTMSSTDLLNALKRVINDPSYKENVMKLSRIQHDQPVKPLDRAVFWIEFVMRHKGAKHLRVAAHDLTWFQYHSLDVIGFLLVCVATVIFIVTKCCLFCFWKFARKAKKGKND
T1 sequence (O60656 26-530): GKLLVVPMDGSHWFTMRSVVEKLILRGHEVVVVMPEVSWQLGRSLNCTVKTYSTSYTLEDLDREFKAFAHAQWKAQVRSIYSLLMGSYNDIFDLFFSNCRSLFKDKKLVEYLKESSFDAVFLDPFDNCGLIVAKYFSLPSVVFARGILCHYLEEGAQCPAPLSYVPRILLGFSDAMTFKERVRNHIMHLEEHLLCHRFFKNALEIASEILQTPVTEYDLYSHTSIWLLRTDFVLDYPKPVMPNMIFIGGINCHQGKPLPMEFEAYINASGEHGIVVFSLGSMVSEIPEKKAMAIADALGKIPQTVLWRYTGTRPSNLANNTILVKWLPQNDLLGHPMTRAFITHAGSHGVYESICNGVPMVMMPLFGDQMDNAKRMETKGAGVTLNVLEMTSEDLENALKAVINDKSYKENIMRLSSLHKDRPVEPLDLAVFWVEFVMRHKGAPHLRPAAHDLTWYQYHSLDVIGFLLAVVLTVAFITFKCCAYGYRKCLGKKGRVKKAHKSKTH

For `O=C1CC(c2cc(-c3c(O)ccc4c(=O)cc(-c5ccc(O)cc5)oc34)c(O)cc2O)Oc2cc(O)cc(O)c21` (stereo not shown) [selamariscina A], which IC50 [1] is on record?
The IC50 was 40.4 ± 11.1 µM.

What about the IC50 [2] of the same molecule?
Its IC50 is greater than 50 µM.

And the Ki ([3]; HLMs, average ± standard error, triplicate)?
The Ki was 0.01 ± 0.003 µM.

And the “Mode of Inhibition, CYP2C8 rosiglitazone” value ([3]; microsomes)?
The value was “Noncompetitive, partial”.

— PMC7238120, “Strong and Selective Inhibitory Effects of the Biflavonoid Selamariscina A against CYP2C8 and CYP2C9 Enzyme Activities in Human Liver Microsomes” (Pharmaceutics, 2020)
